In patent publication US8633245B2, “PAI-1 inhibitor” (Institute of Medicinal Molecular Design, Inc., priority 2008, dated 2014):

Molecular target: T1, recombinant human PAI-1 (Homo sapiens, UniProt P05121)
T1 construct: purchased Molecular Innovations, Inc
Assay: Test Example 2: human PAI-1 inhibitory activity (tPA fluorogenic substrate, pH 7.4 HEPES buffer)
Assay type: biochemical
Settings: human PAI-1
Procedure: 0.1 M HEPES, 0.1 M NaCl. 1 mM EDTA. 0.1% Polyethylene glycol 8,000 (Hampton Research Corporation),
2 mM Dimethyldecylphoshine oxide [Apo-10] (Fluka Corporation)

T1 sequence (P05121 24-402): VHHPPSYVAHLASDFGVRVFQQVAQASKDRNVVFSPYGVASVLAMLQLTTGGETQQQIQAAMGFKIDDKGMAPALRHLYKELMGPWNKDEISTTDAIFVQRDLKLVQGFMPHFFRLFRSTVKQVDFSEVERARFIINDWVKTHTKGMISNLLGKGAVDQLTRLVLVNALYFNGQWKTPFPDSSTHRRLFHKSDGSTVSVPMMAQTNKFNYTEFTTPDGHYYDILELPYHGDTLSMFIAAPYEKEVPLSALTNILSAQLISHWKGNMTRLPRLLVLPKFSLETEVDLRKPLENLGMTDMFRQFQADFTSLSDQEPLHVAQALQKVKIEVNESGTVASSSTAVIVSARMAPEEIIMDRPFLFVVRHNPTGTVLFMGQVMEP

## CC(C)(C)c1ccc(Oc2cc(-c3cc(Cl)ccc3Cl)ccc2/C=C/C(=O)O)cc1 [Compound 483]
Compound concentration 0.1 μM
  Inhibition Rate of PAI-1 Activity (%): 0%
Compound concentration 0.3 μM
  Inhibition Rate of PAI-1 Activity (%): 8%
Compound concentration 1 μM
  Inhibition Rate of PAI-1 Activity (%): 76%
Compound concentration 3 μM
  Inhibition Rate of PAI-1 Activity (%): >99%

## CC(C)(C)c1ccc(Oc2cc(-c3cc(Cl)ccc3Cl)ccc2CCC(=O)O)cc1 [Compound 484]
Compound concentration 0.1 μM
  Inhibition Rate of PAI-1 Activity (%): 0%
Compound concentration 0.3 μM
  Inhibition Rate of PAI-1 Activity (%): 7%
Compound concentration 1 μM
  Inhibition Rate of PAI-1 Activity (%): 73%
Compound concentration 3 μM
  Inhibition Rate of PAI-1 Activity (%): >99%

## CC(C)(C)c1ccc(Oc2cc(-c3cccc([N+](=O)[O-])c3)ccc2OCC(=O)O)cc1 [Compound 485]
Compound concentration 0.1 μM
  Inhibition Rate of PAI-1 Activity (%): 0%
Compound concentration 0.3 μM
  Inhibition Rate of PAI-1 Activity (%): 6%
Compound concentration 1 μM
  Inhibition Rate of PAI-1 Activity (%): 11%
Compound concentration 3 μM
  Inhibition Rate of PAI-1 Activity (%): 69%

## O=C(O)/C=C/c1ccc(-c2ccc(OC(F)(F)F)cc2)cc1OCCCOCc1ccccc1 [Compound 487]
Compound concentration 0.1 μM
  Inhibition Rate of PAI-1 Activity (%): 0%
Compound concentration 0.3 μM
  Inhibition Rate of PAI-1 Activity (%): 3%
Compound concentration 1 μM
  Inhibition Rate of PAI-1 Activity (%): 26%
Compound concentration 3 μM
  Inhibition Rate of PAI-1 Activity (%): 98%

## O=C(O)CCc1ccc(-c2ccc(OC(F)(F)F)cc2)cc1OCCCOCc1ccccc1 [Compound 488]
Compound concentration 0.1 μM
  Inhibition Rate of PAI-1 Activity (%): 0%
Compound concentration 0.3 μM
  Inhibition Rate of PAI-1 Activity (%): 10%
Compound concentration 1 μM
  Inhibition Rate of PAI-1 Activity (%): 36%
Compound concentration 3 μM
  Inhibition Rate of PAI-1 Activity (%): 91%

## O=C(O)/C=C/c1ccc(-c2ccc(OC(F)(F)F)cc2)cc1OCCCSc1ccccc1 [Compound 489]
Compound concentration 0.1 μM
  Inhibition Rate of PAI-1 Activity (%): 12%
Compound concentration 0.3 μM
  Inhibition Rate of PAI-1 Activity (%): 14%
Compound concentration 1 μM
  Inhibition Rate of PAI-1 Activity (%): 69%
Compound concentration 3 μM
  Inhibition Rate of PAI-1 Activity (%): >99%

## CC(C)c1ccccc1Oc1cc(-c2ccc(OC(F)(F)F)cc2)ccc1/C=C/C(=O)O [Compound 490]
Compound concentration 0.1 μM
  Inhibition Rate of PAI-1 Activity (%): 6%
Compound concentration 0.3 μM
  Inhibition Rate of PAI-1 Activity (%): 13%
Compound concentration 1 μM
  Inhibition Rate of PAI-1 Activity (%): 91%
Compound concentration 3 μM
  Inhibition Rate of PAI-1 Activity (%): >99%

## CC(C)c1ccccc1Oc1cc(-c2ccc(OC(F)(F)F)cc2)ccc1CCC(=O)O [Compound 491]
Compound concentration 0.1 μM
  Inhibition Rate of PAI-1 Activity (%): 6%
Compound concentration 0.3 μM
  Inhibition Rate of PAI-1 Activity (%): 10%
Compound concentration 1 μM
  Inhibition Rate of PAI-1 Activity (%): 66%
Compound concentration 3 μM
  Inhibition Rate of PAI-1 Activity (%): >99%

## O=C(O)COc1ccc(-c2ccc(OC(F)(F)F)cc2)cc1Oc1ccc(OCc2ccccc2)cc1 [Compound 492]
Compound concentration 0.1 μM
  Inhibition Rate of PAI-1 Activity (%): 5%
Compound concentration 0.3 μM
  Inhibition Rate of PAI-1 Activity (%): 20%
Compound concentration 1 μM
  Inhibition Rate of PAI-1 Activity (%): >99%
Compound concentration 3 μM
  Inhibition Rate of PAI-1 Activity (%): >99%

## Cc1cc(C)cc(Oc2cc(-c3ccc(C(C)(C)C)cc3)ccc2/C=C/C(=O)O)c1 [Compound 494]
Compound concentration 0.1 μM
  Inhibition Rate of PAI-1 Activity (%): 9%
Compound concentration 0.3 μM
  Inhibition Rate of PAI-1 Activity (%): 24%
Compound concentration 1 μM
  Inhibition Rate of PAI-1 Activity (%): 87%
Compound concentration 3 μM
  Inhibition Rate of PAI-1 Activity (%): 92%

## CC(C)(C)c1ccc(Oc2cc(-c3ccc(C(C)(C)C)cc3)ccc2/C=C/C(=O)O)cc1 [Compound 495]
Compound concentration 0.1 μM
  Inhibition Rate of PAI-1 Activity (%): 8%
Compound concentration 0.3 μM
  Inhibition Rate of PAI-1 Activity (%): 64%
Compound concentration 1 μM
  Inhibition Rate of PAI-1 Activity (%): 98%
Compound concentration 3 μM
  Inhibition Rate of PAI-1 Activity (%): >99%

## Cc1cc(C)cc(-c2ccc(/C=C/C(=O)O)c(Oc3ccc(C(C)(C)C)cc3)c2)c1 [Compound 496]
Compound concentration 0.1 μM
  Inhibition Rate of PAI-1 Activity (%): 4%
Compound concentration 0.3 μM
  Inhibition Rate of PAI-1 Activity (%): 9%
Compound concentration 1 μM
  Inhibition Rate of PAI-1 Activity (%): 85%
Compound concentration 3 μM
  Inhibition Rate of PAI-1 Activity (%): >99%

## CC(C)(C)c1ccc(Oc2cc(-c3ccc(C(C)(C)C)cc3)ccc2CCC(=O)O)cc1 [Compound 497]
Compound concentration 0.1 μM
  Inhibition Rate of PAI-1 Activity (%): 3%
Compound concentration 0.3 μM
  Inhibition Rate of PAI-1 Activity (%): 24%
Compound concentration 1 μM
  Inhibition Rate of PAI-1 Activity (%): >99%
Compound concentration 3 μM
  Inhibition Rate of PAI-1 Activity (%): >99%

## Cc1cc(C)cc(-c2ccc(CCC(=O)O)c(Oc3ccc(C(C)(C)C)cc3)c2)c1 [Compound 498]
Compound concentration 0.1 μM
  Inhibition Rate of PAI-1 Activity (%): 1%
Compound concentration 0.3 μM
  Inhibition Rate of PAI-1 Activity (%): 4%
Compound concentration 1 μM
  Inhibition Rate of PAI-1 Activity (%): 44%
Compound concentration 3 μM
  Inhibition Rate of PAI-1 Activity (%): >99%

## Cc1cc(C)cc(Oc2cc(-c3ccc(C(C)(C)C)cc3)ccc2CCC(=O)O)c1 [Compound 499]
Compound concentration 0.1 μM
  Inhibition Rate of PAI-1 Activity (%): 15%
Compound concentration 0.3 μM
  Inhibition Rate of PAI-1 Activity (%): 14%
Compound concentration 1 μM
  Inhibition Rate of PAI-1 Activity (%): 77%
Compound concentration 3 μM
  Inhibition Rate of PAI-1 Activity (%): 98%

## CC(Oc1cc(-c2ccc(OC(F)(F)F)cc2)ccc1/C=C/C(=O)O)c1ccccc1 (stereo not drawn) [Compound 500]
Compound concentration 0.1 μM
  Inhibition Rate of PAI-1 Activity (%): 19%
Compound concentration 0.3 μM
  Inhibition Rate of PAI-1 Activity (%): 14%
Compound concentration 1 μM
  Inhibition Rate of PAI-1 Activity (%): 25%
Compound concentration 3 μM
  Inhibition Rate of PAI-1 Activity (%): 80%

## CC(Oc1cc(-c2ccc(OC(F)(F)F)cc2)ccc1CCC(=O)O)c1ccccc1 (stereo not drawn) [Compound 501]
Compound concentration 0.1 μM
  Inhibition Rate of PAI-1 Activity (%): 12%
Compound concentration 0.3 μM
  Inhibition Rate of PAI-1 Activity (%): 0%
Compound concentration 1 μM
  Inhibition Rate of PAI-1 Activity (%): 12%
Compound concentration 3 μM
  Inhibition Rate of PAI-1 Activity (%): 83%

## CC(C)(C)c1ccc(Oc2cc(-c3cccc(OC(F)(F)F)c3)ccc2/C=C/C(=O)O)cc1 [Compound 503]
Compound concentration 0.1 μM
  Inhibition Rate of PAI-1 Activity (%): 13%
Compound concentration 0.3 μM
  Inhibition Rate of PAI-1 Activity (%): 27%
Compound concentration 1 μM
  Inhibition Rate of PAI-1 Activity (%): 97%
Compound concentration 3 μM
  Inhibition Rate of PAI-1 Activity (%): 93%
